According to ChEMBL document CHEMBL1143516, “Mercaptoamide-based non-hydroxamic acid type histone deacetylase inhibitors” (Bioorg Med Chem Lett, 2005):

The compounds below were run against Histone deacetylase (assay: In vitro inhibitory concentration against Histone deacetylase; Control value 0.06 uM).
Assay type: protein assay, Homo sapiens

SMILES | IC50 [µM]
O=C(CS)NCCCCCC(=O)Nc1cnc2ccccc2c1 | 1.1
O=C(CCC(=O)Nc1ccccc1)NCCS | 12.5
O=C(CCCCCCCC(=O)Nc1ccccc1)NCCS | 10.2
O=C(CS)NCCC(=O)Nc1cnc2ccccc2c1 | 39.5
O=C(NCCS)C(=O)Nc1ccccc1 | 2.8
O=C(CS)NCCCC(=O)Nc1cnc2ccccc2c1 | 0.66
O=C(CS)NCCCCC(=O)Nc1cnc2ccccc2c1 | 2.8
O=C(CCCCCCC(=O)Nc1ccccc1)NCCS | 2.35
O=C(CCCC(=O)Nc1ccccc1)NCCS | 3.1
O=C(CCCCCC(=O)Nc1ccccc1)NCCS | 2.5
O=C(CCCCC(=O)Nc1ccccc1)NCCS | 1.5
O=C(CCCCCC[N-]CC[S-])Nc1ccccc1.[Zn+2] | > 100
O=C(CC(=O)Nc1ccccc1)NCCS | 70
